Assay results: PMC8624133, “10th Trends in Medical Mycology Held on 8 to 11 October 2021, Aberdeen, Scotland, Organized by the European Confederation of Medical Mycology (ECMM)” (Journal of Fungi, 2021)
Values after ≈ are worked out from the molar mass of the structure shown. Non-standard residues stand in square brackets, D forms with d. Residues, ends and D or L forms follow the SMILES beside them. No end group written: not given here. pS = N[C@@H](COP(=O)(O)O)C(=O)O

How the values were obtained:
C. auris [1] = assay: EUCAST EDef 7.3.1 MIC and checkerboard microdilution; assay type: cell-based, Candida auris
Procedure: Methods: We studied 22 C. auris isolates obtained from different clinical samples from the Hospital La Fe, Valencia, Spain (eight from blood culture, seven from oropharynx and seven from urine cultures). Candida parapsilosis ATCC 22019 and Candida krusei ATCC 6258 were used as quality controls. The minimum inhibitory concentration (MIC) was determined according to the European Committee on Antibiotic Susceptibility Testing (EUCAST) EDef 7.3.1 document. The interaction between citral and the rest of antifungal drugs was assessed by a checkerboard microdilution method. […] The in vitro interaction of the drug combinations was interpreted in terms of the fractional inhibitory concentration index (FICI) as follows: FICI < 1, synergistic; FICI equal to 1, additive; and FICI > 1, indifferent or antagonistic.

C. krusei ATCC 6558 = assay: Broth microdilution of modified HDPs; assay type: cell-based, Candida krusei; conditions: 0.19 to 50 μg/mL tested
Text: (§1) Materials & Methods: From the Scarabaeidae family transcriptome, 14 promising HDPs were identified. Subsequently, we designed new sequences modifying the net charge, hydrophobic angle and the general composition of amino acids, among other properties, in order to improve the HDPs antifungal activity. The in vitro antifungal susceptibility of the 14 modified HDPs against Candida krusei, ATCC 6558, Candida parapsilosis ATCC 22019, Candida glabrata ATCC 2001, Candida tropicalis ATCC 750, Cryptococcus neoformans H99 and Cryptococcus gattii H0058-I-2029 isolates were evaluated by broth microdilution, with a concentration ranging from 0.19 to 50 μg/mL for all peptides.

[2] = test system: C. parapsilosis ATCC 22019; assay: Broth microdilution of modified HDPs; assay type: cell-based, Candida parapsilosis; conditions: 0.19 to 50 μg/mL tested
Text: as §1

C. albicans SC5314 = assay: Broth microdilution of modified HDPs; assay type: cell-based, Candida albicans; conditions: 0.19 to 50 μg/mL tested
C. tropicalis ATCC 750 = assay: Broth microdilution of modified HDPs; assay type: cell-based, Candida tropicalis; conditions: 0.19 to 50 μg/mL tested
Text: as §1

C. albicans ATCC 1453 = assay: Broth microdilution of modified HDPs; assay type: cell-based, Candida albicans; conditions: 0.19 to 50 μg/mL tested
C. glabrata ATCC 2001 = assay: Broth microdilution of modified HDPs; assay type: cell-based, Candida glabrata; conditions: 0.19 to 50 μg/mL tested
Text: as §1

C. neoformans H99 = assay: Broth microdilution of modified HDPs; assay type: cell-based, Cryptococcus neoformans; conditions: 0.19 to 50 μg/mL tested
Text: as §1

C. gattii H0058-I-2029 = assay: Broth microdilution of modified HDPs; assay type: cell-based, Cryptococcus gattii; conditions: 0.19 to 50 μg/mL tested
Text: as §1

C. auris [3] = assay: CLSI M27-A3 broth microdilution; assay type: cell-based, Candida auris; conditions: for GM MIC (≥90% reduction of visible growth): 256–16 μg/mL tested, duplicate at two times
[4] = test system: nine strains of Candida spp.; assay: CLSI M27-A3 broth microdilution; assay type: cell-based
[5] = test system: P. insidiosum (strains CBS101555, P38, ATCC90586); assay: Radial growth assay; assay type: cell-based, Pythium insidiosum; conditions: for reduction of growth compared to the control: colony radial growth; for MIC: Pythium insidiosum
Procedure: These agriculture fungicides were initially evaluated for inhibitory effect against 3 phylogenetical distinct strains of P. insidiosum (i.e., strains CBS101555, P38, and ATCC90586) isolated from humans and animal with pythiosis in Thailand, Brazil, and United States. A radial growth assay was employed for the in vitro susceptibility analysis. […] The percentage of the colony’s radial growth of the treated organism was calculated in relation to the untreated control. The microscopic changes of the microorganisms were recorded.

With `CC(C)=CCCC(C)=CC=O` (mixture of isomers) [citral] the “MIC of citral in combination with anidulafungin” value (C. auris [1]; 21 of the 22 isolates) was 3 to 128 µg/mL, the MIC (C. auris [1]; Candidozyma auris, 22 clinical isolates) was greater than 1020 µg/mL and the “isolates with additive effect (FICI equal to 1)” value (C. auris [1]; citral + fluconazole) was “eight”. The “isolates with synergistic effect (FICI < 1)” value (C. auris [1]; citral + fluconazole) was “three”, the “isolates with additive effect (FICI equal to 1)” value (C. auris [1]; citral + isavuconazole) was “seven” and the “isolates with synergistic effect (FICI < 1)” value (C. auris [1]; citral + isavuconazole) was “seven”.
Compound `CC[C@H](C)[C@H](NC(=O)[C@H](CCCCN)NC(=O)[C@H](CCCCN)NC(=O)[C@@H](NC(=O)[C@H](CCCNC(=N)N)NC(=O)[C@H](CCCCN)NC(=O)[C@H](CCC(=O)O)NC(=O)[C@H](Cc1ccccc1)NC(=O)[C@H](CCCCN)NC(=O)[C@H](CCCNC(=N)N)NC(=O)[C@H](Cc1c[nH]c2ccccc12)NC(=O)[C@H](CCCNC(=N)N)NC(=O)[C@H](CCCCN)NC(=O)[C@H](COP(=O)(O)O)NC(=O)[C@@H](N)CCCCN)C(C)C)C(=O)N[C@@H](Cc1ccccc1)C(=O)N[C@@H](CCC(=O)O)C(=O)N[C@@H](CCCCN)C(=O)N[C@H](C(=O)N[C@@H](CCCCN)C(=O)N[C@@H](CCC(=O)O)C(=O)N[C@@H](C)C(=O)N[C@@H](CCCCN)C(N)=O)[C@@H](C)O` [Act2.1] (H-K[pS]KRWRKFEKRVKKIFEKTKEAK-NH2) has an MIC (C. krusei ATCC 6558) of 0.78 µg/mL (≈ 0.255 µM), an MIC [2] of 1.56 µg/mL (≈ 0.51 µM) and an MIC (C. albicans SC5314) greater than 50 µg/mL. The MIC (C. tropicalis ATCC 750) was greater than 50 µg/mL, the MIC (C. albicans ATCC 1453) was greater than 50 µg/mL and the MIC (C. glabrata ATCC 2001) was 1.56 µg/mL (≈ 0.51 µM). For the same compound, the MIC (C. neoformans H99) was greater than 50 µg/mL and the MIC (C. gattii H0058-I-2029) was 1.56 µg/mL (≈ 0.51 µM).
In the case of `C=C(C)[C@H]1CC=C(C)CC1` [D-limonene], the MICs range (C. auris [3]) is reported as 16 to 128 µg/mL, the “GM MIC (≥90% reduction of visible growth)” value (C. auris [3]) is reported as 20.39 µg/mL and the “selectivity index (SI)” value ([4]; C. glabrata LMDM 34 vs HaCat) is reported as 6. The “selectivity index (SI)” value ([4]; C. methapsilosis MUM 1512 vs HaCat) was 50, the “selectivity index (SI)” value ([4]; C. orthopsilosis MUM 1713 vs HaCat) was 25 and the “selectivity index (SI)” value ([4]; C. tropicalis ATCC 200956 vs HaCat) was 12.
In the case of `O=C(NCc1ncc(C(F)(F)F)cc1Cl)c1c(Cl)cccc1Cl` [Fluopicolide, fluopicolide], the “reduction of growth compared to the control” value (shortened to “reduction of growth”) [5] is reported as “at least 70%” and the MICs ([5]; tested at 0.25–[…], 3 biological replicates) is reported as 8 µg/mL.
For `Cc1ccc(C(C)C)cc1O` [carvacrol], the “GM MIC (≥90% reduction of visible growth)” value (C. auris [3]) was 215.3 µg/mL.
With `Cc1ccc(-c2c(Cl)nc(C#N)n2S(=O)(=O)N(C)C)cc1` [cyazofamid] the MIC [5] was 16 µg/mL (≈ 49.3 µM) and the “reduction of growth” value [5] was “at least 70%”.
In the case of `COc1ccc(C(=CC(=O)N2CCOCC2)c2ccc(Cl)cc2)cc1OC` [dimethomorph], the inhibition [5] is reported as “no significant inhibition”.
In the case of `CSC1=N[C@@](C)(c2ccccc2)C(=O)N1Nc1ccccc1` [fenamidone], the MIC [5] is reported as 64 µg/mL (≈ 206 µM) and the “reduction of growth” value [5] is reported as “at least 70%”.
In the case of `Cc1cc(C(F)(F)F)nn1CC(=O)N1CCC(c2nc(C3=NOC(c4c(F)cccc4F)C3)cs2)CC1` (stereo not drawn) [oxathiapiprolin], the inhibition [5] is reported as “no significant inhibition”.
`Cc1ccc(C(C)C)cc1` [p-cymene] was tested, and the “GM MIC (≥90% reduction of visible growth)” value (C. auris [3]) was 215.3 µg/mL.
`Cc1ccc(C(C)C)c(O)c1` [thymol] was tested, and the “GM MIC (≥90% reduction of visible growth)” value (C. auris [3]) was 104 µg/mL.
GSKRWRKFEKRVKK-NH2 [domcec] was tested, and the MIC (C. krusei ATCC 6558) was 3.12 µg/mL, the MIC [2] was 3.12 µg/mL and the MIC (C. albicans SC5314) was greater than 50 µg/mL. For the same compound, the MIC (C. tropicalis ATCC 750) was greater than 50 µg/mL, the MIC (C. albicans ATCC 1453) was greater than 50 µg/mL and the MIC (C. glabrata ATCC 2001) was 6.25 µg/mL. For the same compound, the MIC (C. neoformans H99) was greater than 50 µg/mL and the MIC (C. gattii H0058-I-2029) was greater than 50 µg/mL.
